In general, clearance refers to a measure of how efficiently the substance is removed, as volume per time. Lower therefore signals a low capacity for elimination. As usually defined, the inhibition in vivo is the relative decrease from the control value, in per cent.

From ChEMBL document CHEMBL5537164, “Discovery of Potent, Orally Bioavailable, Tricyclic NLRP3 Inhibitors” (J Med Chem, 2024) come the findings set out here.

Data set [1] can be described thus: Dose normalized AUC in C57BL/6 mouse at 3 mg/kg, po measured after 24 hrs by LC-MS/MS analysis. Type of data set: ADME, organism-based. Conditions: in vivo.
The nature of data set [2]: Metabolic stability in mouse liver microsomes assessed as intrinsic clearance. Format: ADME, Microsome. The following applies: read-out: CLH. Background: Microsomes from liver hold many membrane-bound enzymes, among them those of drug oxidation.
Data set [3] is described as follows: Clearance in C57BL/6 mouse at 1 mg/kg, iv measured after 24 hrs by LC-MS/MS analysis. Format: ADME, organism-based. The following applies: in vivo.
Data set [4] is described as follows: In vivo inhibition of NLRP3 in LPS/ATP-induced C57BL/6 mouse model of acute peritonitis assessed as reduction in IL-1beta level at 10 mg/kg, po preadministered with compound for 1 hrs followed by LPS stimulation for 2 hrs and measured 15 mins after ATP addition by ELISA relative to control. Format: functional. Conditions: time 3.25 hrs.
Data set [5] can be described thus: Drug concentration in blood of C57BL/6 mouse model of acute peritonitis at 100 mg/kg, po preadministered with compound for 1 hrs followed by LPS stimulation for 2 hrs and measured 15 mins after ATP addition by HPLC-MS/MS analysis. Format: ADME, organism-based. Conditions: whole blood, read-out: Ct.
Data set [6] is described as follows: In vivo inhibition of NLRP3 in LPS/ATP-induced C57BL/6 mouse model of acute peritonitis assessed as reduction in IL-1beta level at 50 mg/kg, po preadministered with compound for 1 hrs followed by LPS stimulation for 2 hrs and measured 15 mins after ATP addition by ELISA relative to control. Conditions: time 3.25 hrs. Format: functional. (ELISA stands for enzyme-linked immunosorbent assay.)

Data set [7] in a line: Drug concentration in brain of C57BL/6 mouse model of acute peritonitis at 50 mg/kg, po preadministered with compound for 1 hrs followed by LPS stimulation for 2 hrs and measured 15 mins after ATP addition by HPLC-MS/MS analysis. Format: ADME, organism-based. The following applies: read-out: Ct.
A short description of data set [8]: Drug metabolism in dog liver microsome assessed as thiophene oxidation mediated metabolite formation. Format: ADME, Canis lupus familiaris. Conditions: microsomes.
Data set [9] is described as follows: Clearance in human liver microsomes. Type of data set: ADME, Microsome. The following applies: read-out: CLH.
Data set [10] is described as follows: Protein binding in rat plasma. Format: ADME, cell-free. The following applies: read-out: PPB (converted).
Data set [11] in a line: Protein binding in dog plasma. Conditions: read-out: PPB (converted). Type of data set: ADME, cell-free, Canis lupus familiaris.

With `CN1CCC[C@@H](NC(=O)Cn2nc(C(C)(C)O)n3c(cc4sc(Cl)cc43)c2=O)C1`, the AUC/dose in [1] was determined as 235 nmol·h/L. Further, the microsomal CLint was 103 µL/min/mg in data set [2] and 37 µL/min/mg in [9]. Also, the clearance in data set [3] was 58 mL/min/kg. The inhibition in vivo at 10 mg/kg in data set [4] was 45%. In addition, the concentration at 3.25 h is 3670 nM in [5] and 398 nM in data set [7]. Further, the inhibition in vivo at 50 mg/kg in data set [6] amounted to 90%. Moreover, in data set [8], the Drug metabolism result is “Metabolite_Notdetected”. For the same compound, the fraction unbound in data set [10] was 0.22; in data set [11] it was 0.17.
